Source: the supplement of paper PMC10949913

How the values were obtained:
Experiment in all cases: area under concentration-response curve (viability) (AUC (a.u.)); higher = less active
Conditions in all cases: 48 h
CU-ACC2 = tested on: CU-ACC2
Method in brief: (§1)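 In 1,536-well plates, 500–1,000 cells/well of three adrenocortical carcinoma cell lines in 5 µL medium received 23 nL of each library compound across 11 concentrations. At 48 h, CellTiter-Glo was incubated for 15 minutes at room temperature and luminescence measured. Per-plate normalisation used vehicle and empty-well controls, and only inhibitory or non-responding curve classes were kept when fitting concentration-response curves for AC50 and area under the curve.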

NCI-H295R = tested on: NCI-H295R
Method in brief: as §1

CU-ACC1 = tested on: CU-ACC1
Method in brief: as §1

| Compound | area under concentration-response curve (CU-ACC2) | area under concentration-response curve (NCI-H295R) | area under concentration-response curve (CU-ACC1) |
| --- | --- | --- | --- |
| Nc1cccc2c1CN([C@H]1CCC(=O)NC1=O)C2=O | 544 | 498 | 454 |
| CN(C)c1ccc(O)c2c1C[C@H]1C[C@H]3[C@H](N(C)C)C(O)=C(C(N)=O)C(=O)[C@@]3(O)C(O)=C1C2=O | 524 | 473 | 453 |
| O=C1\C=C(/OC2=C1C=CC=C2C3=CC=CC=C3)N4CCOCC4 | 550 | 515 | 498 |
| Cc1cnc(Nc2cccc(CN3CCOCC3)c2)nc1Nc1cccc([S+](=O)([O-])NC(C)(C)C)c1 | 508 | 467 | 453 |
| C[C@H]1CN(C[C@H](Cc2ccccc2)C(=O)NCC(=O)O)CC[C@@]1(C)c1cccc(O)c1 | 662 | 577 | 569 |
| CCC(=O)[N-]S(=O)(=O)c1ccc(-c2c(-c3ccccc3)noc2C)cc1.[Na+] | 656 | 595 | 549 |
| CC[C@H]1OC(=O)[C@H](C)[C@@H](O[C@H]2C[C@@](C)(OC)[C@@H](O)[C@H](C)O2)[C@H](C)[C@@H](O[C@@H]2O[C@H](C)C[C@H](N(C)C)[C@H]2O)[C@](C)(O)C[C@@H](C)C(=O)[C@H](C)[C@@H](O)[C@]1(C)O | 634 | 594 | 544 |
| C1CN\2C[C@@H](\N=C2S1)C3=CC=CC=C3 | 626 | 575 | 506 |
| CCC(C)CNCC(=O)N1CCc2sccc2C1c1cccc(C)n1 (stereo not given) | 622 | 571 | 531 |
| O=C(NOCC(O)CO)c1ccc(F)c(F)c1Nc1ccc(I)cc1F (stereo not given) | 459 | 488 | 329 |
| NC(=O)OCC(COC(N)=O)c1ccccc1 | 554 | 460 | 497 |
| CC(C)(C)[S+](=O)([O-])c1ccc2nccc(Nc3n[nH]c4ccc(F)cc34)c2c1 | 627 | 561 | 526 |
| CCC(CCCC)COC(=O)C(\C#N)=C(\c1ccccc1)c2ccccc2 (stereo not given) | 667 | 583 | 540 |
| O=C1CCC(N2C(=O)c3ccccc3C2=O)C(=O)N1 (stereo not given) | 602 | 538 | 535 |
| OC(=O)CNC(=O)\C1=C(/O)C2=CC=CC=C2N(CC3=CC=CC=C3)C1=O | 539 | 529 | 441 |
| Cc1cccc(-c2nn3c(c2-c2ccnc4ccc(C(N)=O)cc24)CCC3)n1 | 628 | 575 | 546 |
| Nc1ncc(C(=O)NC2CN(C(=O)C3CC3)C2)c2ccc(-c3cccc(F)c3)nc12 | 647 | 574 | 538 |
| CCC(C)C(N)\C1=N\C(CS1)C(=O)N[C@@H](CC(C)C)C(=O)N[C@H](CCC(O)=O)C(=O)N[C@@H]([C@@H](C)CC)C(=O)N[C@H]2CCCCNC(=O)[C@H](CC(N)=O)NC(=O)[C@@H](CC(O)=O)NC(=O)[C@H](CC3=CN=C[NH]3)NC(=O)[C@@H](CC4=CC=CC=C4)NC(=O)[C@@H](NC(=O)[C@@H](CCCN)NC2=O)[C@@H](C)CC (stereo not given in full) | 682 | 582 | 593 |
| C[C@]12CC[C@@H]3c4ccc(O)cc4C[C@@H](CCCCCCCCC[S+]([O-])CCCC(F)(F)C(F)(F)F)[C@H]3[C@@H]1CC[C@@H]2O (stereo not given in full) | 564 | 530 | 391 |
| O=C1\C=C/C[C@@H]2[C@H]3CCCN4CCC[C@@H](CN12)[C@@H]34 | 509 | 546 | 541 |
| ClC1=CC=C2N/C3=N/C(=O)CN3CC2=C1Cl | 626 | 542 | 519 |
| COc1cc(C)c(/C=C/C(C)=C/C=C/C(C)=C/C(=O)O)c(C)c1C | 544 | 524 | 484 |
| COC(=O)/C=C/C(=O)OC | 608 | 550 | 525 |

| Compound | area under concentration-response curve (CU-ACC2) | area under concentration-response curve (NCI-H295R) | area under concentration-response curve (CU-ACC1) |
| --- | --- | --- | --- |
| O=C(CN1C(=O)C2(CCCC2)NC[C@H]1c1cc(F)cc(F)c1)Nc1ccc2c(c1)C[C@@]1(C2)C(=O)Nc2ncccc21 | 565 | 515 | 463 |
| C\C1=C(\C=C(\C#N)C(=O)N1)C2=CC=NC=C2 | 515 | 543 | 532 |
| N[C@@H](CC(=O)N1CCn2c(nnc2C(F)(F)F)C1)Cc1cc(F)c(F)cc1F | 597 | 555 | 554 |
| CC(=O)N1c2ccc(-c3ccc(C(=O)O)cc3)cc2[C@H](Nc2ccc(Cl)cc2)C[C@@H]1C | 548 | 497 | 380 |
| NC[C@H]1CC[C@H](C(=O)O)CC1 | 586 | 452 | 497 |
| OC1=C(C=CC=C1)C2=CC=C(C=C2)C3=CSC4=C3C(=C(/C#N)C(=O)N4)/O | 626 | 570 | 535 |
| COC1=C2OC(=O)\C=C/C2=CC3=C1OC=C3 | 482 | 475 | 420 |
| CC(=O)N1CCC[C@H]1C(=O)N[C@@H](Cc1c[nH]cn1)C(=O)N[C@@H](CO)C(=O)N[C@@H](CS)C(=O)N[C@@H](CC(N)=O)C(N)=O | 527 | 498 | 382 |
| COc1cc2ncnc(Nc3cccc(Br)c3)c2cc1OC | 583 | 527 | 395 |
| CCNC(=O)C[C@H]1/N=C(/C2=CC=C(Cl)C=C2)C3=CC(=CC=C3[N]4C(=NN=C14)C)OC | 452 | 455 | 362 |
| COC1=C(OC)C=C2CN(CCC3=CC=C(C=C3)[N]4N=NC(=N4)C5=CC(=C(OC)C=C5NC(=O)\C6=C\C(=O)C7=CC=CC=C7O6)OC)CCC2=C1 | 654 | 688 | 735 |
| CC(C)C/1=C(NC2=C(C=N[N]2C1=O)C#N)\C3=CC=CC=C3 | 580 | 480 | 497 |
| CN1CCN(C)C(=O)C1C2=CC=C(N/C3=N/C(=C\N(C)C3=O)C4=C(C)C(=CC=C4)NC(=O)C5=CC6=C(CCCC6)S5)C=C2 (stereo not given) | 612 | 580 | 528 |
| OC1=C(Cl)C=C(N\C2=C(\C(=O)NC2=O)C3=C(C=CC=C3)[N+]([O-])=O)C=C1 | 475 | 507 | 502 |
| CCCCn1c(=O)n(Cc2ccccc2F)c(=O)c2nc(Cc3ccc(NC(C)=O)cc3)[nH]c21 | 543 | 531 | 491 |
| Nc1ncnc2c1C(=O)N(c1ccc([C@H]3CC[C@H](CC(=O)O)CC3)cc1)CCO2 | 554 | 509 | 497 |
| CC1(C)O[C@@H]2C[C@H]3[C@@H]4CCC/5=C/C(=O)/C=C\[C@]5(C)[C@@]4(F)[C@@H](O)C[C@]3(C)[C@@]2(O1)C(=O)CO | 517 | 548 | 551 |
| N#C/N=C(\NCCCCCCOc1ccc(Cl)cc1)Nc1ccncc1 | 367 | 425 | 269 |
| C#C[C@]1(O)CC[C@H]2[C@@H]3CCc4cc(O)ccc4[C@H]3CC[C@@]21C | 611 | 538 | 525 |
| COc1cc2c(NC3CCN(C4CCCCC4)CC3)nc(N3CCCN(C(C)C)CC3)nc2cc1OCCCN1CCCCC1 | 562 | 519 | 534 |
| COc1ccc(-n2cnc3cc(C(=O)N4CCCCC4)ccc32)cc1 | 534 | 479 | 502 |
| CO[C@H]1CC[C@H](N(c2cc(C3=CCCCC3)sc2C(=O)[O-])C(=O)[C@H]2CC[C@H](C)CC2)CC1 | 613 | 573 | 514 |
